Assay results reported in patent US9440978B2, “Imidazolo-, oxazolo-, and thiazolopyrimidine modulators of TRPV1” (Janssen Pharmaceutica NV, priority 2007, dated 2016).
Structures can show the parent of a compound that is named as a salt.

Experiments:
human TRPV1 = target: T1, human TRPV1 (Homo sapiens, UniProt Q8NER1); assay: Block of capsaicin-induced Ca2+ influx, human assay (hTRPV1/HEK293, FLIPR); assay type: cell-based; settings: HEK293 cells transfected with human TRPV1; 150 nM capsaicin challenge; mean; > value = solubility limit in assay medium
T1 construct: expressed in transfected cells; host or cells: HEK293

rat TRPV1 = target: T2, rat TRPV1 (Rattus norvegicus, UniProt O35433); assay: Block of capsaicin-induced Ca2+ influx, rat assay (rTRPV1/HEK293, FLIPR); assay type: cell-based; settings: HEK293 cells transfected with rat TRPV1; capsaicin challenge; mean; > value = solubility limit in assay medium; read-out: Rat IC50
T2 construct: expressed in transfected cells; host or cells: HEK293
Outline: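 HEK293 cells expressing rat TRPV1, Fluo-3 loaded, preincubated 30 min with compound in 20 μM Ca2+ buffer (serial three-fold dilutions, usually from 10 μM, duplicate). Capsaicin-evoked fluorescence change over 100 s measured on FLIPR; IC50 by non-linear regression, averaged across runs.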

T1 sequence (Q8NER1 whole entry): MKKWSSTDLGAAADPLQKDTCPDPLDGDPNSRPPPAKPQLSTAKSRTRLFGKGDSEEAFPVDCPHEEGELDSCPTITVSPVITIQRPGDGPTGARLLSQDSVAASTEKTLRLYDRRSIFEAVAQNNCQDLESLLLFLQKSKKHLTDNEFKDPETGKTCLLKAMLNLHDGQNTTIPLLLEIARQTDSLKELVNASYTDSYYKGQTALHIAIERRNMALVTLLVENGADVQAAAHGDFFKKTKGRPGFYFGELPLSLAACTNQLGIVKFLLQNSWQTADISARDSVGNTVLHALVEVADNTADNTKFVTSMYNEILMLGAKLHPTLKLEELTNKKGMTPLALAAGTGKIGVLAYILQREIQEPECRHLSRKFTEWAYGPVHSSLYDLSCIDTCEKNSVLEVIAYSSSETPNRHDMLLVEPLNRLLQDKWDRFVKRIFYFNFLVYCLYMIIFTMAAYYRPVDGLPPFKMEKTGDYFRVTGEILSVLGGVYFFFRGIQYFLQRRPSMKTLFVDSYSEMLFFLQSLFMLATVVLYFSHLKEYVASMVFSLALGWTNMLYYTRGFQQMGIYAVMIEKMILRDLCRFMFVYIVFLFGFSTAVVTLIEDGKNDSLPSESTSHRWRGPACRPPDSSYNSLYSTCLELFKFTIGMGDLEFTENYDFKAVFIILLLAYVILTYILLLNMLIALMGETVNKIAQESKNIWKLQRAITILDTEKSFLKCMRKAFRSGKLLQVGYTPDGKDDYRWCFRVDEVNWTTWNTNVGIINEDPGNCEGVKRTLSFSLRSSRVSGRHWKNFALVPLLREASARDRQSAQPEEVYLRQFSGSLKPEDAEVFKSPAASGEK
T2 sequence (O35433 whole entry): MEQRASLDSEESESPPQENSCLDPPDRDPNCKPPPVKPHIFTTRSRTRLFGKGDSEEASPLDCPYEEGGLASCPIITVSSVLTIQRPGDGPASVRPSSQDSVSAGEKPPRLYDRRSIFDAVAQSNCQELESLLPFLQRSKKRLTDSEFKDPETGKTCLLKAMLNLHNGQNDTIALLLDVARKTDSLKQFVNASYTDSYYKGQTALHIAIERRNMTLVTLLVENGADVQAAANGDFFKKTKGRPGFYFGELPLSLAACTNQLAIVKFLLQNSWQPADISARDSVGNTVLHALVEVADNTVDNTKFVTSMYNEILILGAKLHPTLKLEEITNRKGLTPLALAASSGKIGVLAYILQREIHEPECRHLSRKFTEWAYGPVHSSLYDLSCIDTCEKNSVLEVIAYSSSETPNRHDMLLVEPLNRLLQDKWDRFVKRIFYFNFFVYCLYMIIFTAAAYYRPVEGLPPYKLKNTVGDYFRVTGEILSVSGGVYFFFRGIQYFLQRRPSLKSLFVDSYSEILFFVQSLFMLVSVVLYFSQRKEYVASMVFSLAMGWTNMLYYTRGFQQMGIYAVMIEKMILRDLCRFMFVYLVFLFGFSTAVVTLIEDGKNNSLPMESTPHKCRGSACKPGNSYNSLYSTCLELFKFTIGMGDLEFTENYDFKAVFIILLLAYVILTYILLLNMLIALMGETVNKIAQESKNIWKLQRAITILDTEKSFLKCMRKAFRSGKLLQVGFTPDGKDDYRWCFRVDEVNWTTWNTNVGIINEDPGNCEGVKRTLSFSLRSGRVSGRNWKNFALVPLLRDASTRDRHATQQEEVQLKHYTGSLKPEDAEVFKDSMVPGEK

Structure (SMILES) | IC50 (human TRPV1) | IC50 (rat TRPV1)
CC(C)C1CCCN1c1nc(Nc2ccc(C(F)(F)F)cc2)c2nc(Cc3c(Cl)cccc3Cl)sc2n1 (stereo not drawn) [Example 68, [2-(2,6-Dichloro-benzyl)-5-(2-isopropyl-pyrrolidin-1-yl)-thiazolo[5,4-d]pyrimidin-7-yl]-(4-trifluoromethyl-phenyl)-amine] | 2.32 µM | 1.69 µM
CC(C)CNc1nc(Nc2ccc(C(F)(F)F)cc2)c2nc(Cc3c(Cl)cccc3Cl)sc2n1 [Example 69, 2-(2,6-Dichloro-benzyl)-N^5-isobutyl-N^7-(4-trifluoromethyl-phenyl)-thiazolo[5,4-d]pyrimidine-5,7-diamine] | 0.031 µM | 0.014 µM
FC(F)(F)c1ccc(Nc2nc(N3CCN(C4CCCC4)CC3)nc3sc(Cc4c(Cl)cccc4Cl)nc23)cc1 [Example 76, [5-(4-Cyclopentyl-piperazin-1-yl)-2-(2,6-dichloro-benzyl)-thiazolo[5,4-d]pyrimidin-7-yl]-(4-trifluoromethyl-phenyl)-amine trifluoroacetic acid salt] | 0.31 µM | 0.074 µM
FC(F)(F)c1ccc(Nc2nc(N3CCC(N4CCCC4)CC3)nc3sc(Cc4c(Cl)cccc4Cl)nc23)cc1 [Example 77, [2-(2,6-Dichloro-benzyl)-5-(4-pyrrolidin-1-yl-piperidin-1-yl)-thiazolo[5,4-d]pyrimidin-7-yl]-(4-trifluoromethyl-phenyl)-amine trifluoroacetic acid salt] | 1.12 µM | 4.34 µM
FC(F)(F)c1ccc(Nc2nc(NC3CC3)nc3sc(Cc4c(Cl)cccc4Cl)nc23)cc1 [Example 78, N^5-Cyclopropyl-2-(2,6-dichloro-benzyl)-N^7-(4-trifluoromethyl-phenyl)-thiazolo[5,4-d]pyrimidine-5,7-diamine] | 0.316 µM | 0.215 µM
FC(F)(F)c1ccc(Nc2nc(NC3CCC3)nc3sc(Cc4c(Cl)cccc4Cl)nc23)cc1 [Example 79, N^5-Cyclobutyl-2-(2,6-dichloro-benzyl)-N^7-(4-trifluoromethyl-phenyl)-thiazolo[5,4-d]pyrimidine-5,7-diamine] | 0.104 µM | 0.032 µM
CC(C)CN(CC(C)C)c1nc(Nc2ccc(C(F)(F)F)cc2)c2nc(Cc3c(Cl)cccc3Cl)sc2n1 [Example 80, 2-(2,6-Dichloro-benzyl)-N^5,N^5-diisobutyl-N^7-(4-trifluoromethyl-phenyl)-thiazolo[5,4-d]pyrimidine-5,7-diamine] | 4.65 µM | 4.04 µM
CC(C)CN1CCN(c2nc(Nc3ccc(C(F)(F)F)cc3)c3nc(Cc4c(Cl)cccc4Cl)sc3n2)CC1 [Example 83, [2-(2,6-Dichloro-benzyl)-5-(4-isobutyl-piperazin-1-yl)-thiazolo[5,4-d]pyrimidin-7-yl]-(4-trifluoromethyl-phenyl)-amine trifluoroacetic acid salt] | 0.136 µM | 0.012 µM
FC(F)(F)c1ccc(Nc2nc(NCc3ccccn3)nc3sc(Cc4c(Cl)cccc4Cl)nc23)cc1 [Example 84, 2-(2,6-Dichloro-benzyl)-N^5-pyridin-2-ylmethyl-N^7-(4-trifluoromethyl-phenyl)-thiazolo[5,4-d]pyrimidine-5,7-diamine trifluoroacetic acid salt] | 0.263 µM | 0.038 µM

Results, then the compound that gave them:

IC50 (human TRPV1) | IC50 (rat TRPV1) | Structure (SMILES)
0.433 µM | 0.112 µM | FC(F)(F)c1ccc(Nc2nc(NCc3cccnc3)nc3sc(Cc4c(Cl)cccc4Cl)nc23)cc1 [Example 85, 2-(2,6-Dichloro-benzyl)-N^5-pyridin-3-ylmethyl-N^7-(4-trifluoromethyl-phenyl)-thiazolo[5,4-d]pyrimidine-5,7-diamine trifluoroacetic acid salt]
1.07 µM | 0.187 µM | FC(F)(F)c1ccc(Nc2nc(NCc3ccncc3)nc3sc(Cc4c(Cl)cccc4Cl)nc23)cc1 [Example 86, 2-(2,6-Dichloro-benzyl)-N^5-pyridin-4-ylmethyl-N^7-(4-trifluoromethyl-phenyl)-thiazolo[5,4-d]pyrimidine-5,7-diamine trifluoroacetic acid salt]
0.05 µM | 0.021 µM | CC(Nc1nc(Nc2ccc(C(F)(F)F)cc2)c2nc(Cc3c(Cl)cccc3Cl)sc2n1)c1ccccn1 (stereo not drawn) [Example 87, 2-(2,6-Dichlorobenzyl)-N^5-(1-pyridin-2-ylethyl)-N^7-[4-(trifluoromethyl)phenyl][1,3]thiazolo[5,4-d]pyrimidine-5,7-diamine]
0.964 µM | 1.04 µM | CCN1CCCC1CNc1nc(Nc2ccc(C(F)(F)F)cc2)c2nc(Cc3c(Cl)cccc3Cl)sc2n1 (stereo not drawn) [Example 88, 2-(2,6-Dichlorobenzyl)-N^5-[(1-ethylpyrrolidin-2-yl)methyl]-N^7-[4-(trifluoromethyl)phenyl][1,3]thiazolo[5,4-d]pyrimidine-5,7-diamine]
6.05 µM | 9.71 µM | FC(F)(F)c1ccc(Nc2nc(NCC3CCCCN3)nc3sc(Cc4c(Cl)cccc4Cl)nc23)cc1 (stereo not drawn) [Example 90, 2-(2,6-Dichlorobenzyl)-N^5-(piperidin-2-ylmethyl)-N^7-[4-(trifluoromethyl)phenyl][1,3]thiazolo[5,4-d]pyrimidine-5,7-diamine hydrochloride salt]
4.05 µM | 3.16 µM | FC(F)(F)c1ccc(Nc2nc(NCC3CCCNC3)nc3sc(Cc4c(Cl)cccc4Cl)nc23)cc1 (stereo not drawn) [Example 91, 2-(2,6-Dichlorobenzyl)-N^5-(piperidin-3-ylmethyl)-N^7-[4-(trifluoromethyl)phenyl][1,3]thiazolo[5,4-d]pyrimidine-5,7-diamine hydrochloride salt]
4.72 µM | 4.33 µM | FC(F)(F)c1ccc(Nc2nc(NCC3CCNCC3)nc3sc(Cc4c(Cl)cccc4Cl)nc23)cc1 [Example 92, 2-(2,6-Dichlorobenzyl)-N^5-(piperidin-4-ylmethyl)-N^7-[4-(trifluoromethyl)phenyl][1,3]thiazolo[5,4-d]pyrimidine-5,7-diamine hydrochloride salt]
0.276 µM | 0.231 µM | FC(F)(F)c1cnc(Nc2ncnc3sc(Cc4c(Cl)cccc4Cl)nc23)cn1 [Example 93, [2-(2,6-Dichloro-benzyl)-thiazolo[5,4-d]pyrimidin-7-yl]-(5-trifluoromethyl-pyrazin-2-yl)-amine]
0.924 µM | 0.246 µM | FC(F)(F)c1ccc(Nc2ncnc3sc(Cc4c(Cl)cccc4Cl)nc23)nc1 [Example 94, [2-(2,6-Dichloro-benzyl)-thiazolo[5,4-d]pyrimidin-7-yl]-(5-trifluoromethyl-pyridin-2-yl)-amine]
0.292 µM | 0.119 µM | FC(F)(F)c1ccc(Nc2ncnc3sc(Cc4ccccc4C(F)(F)F)nc23)nc1 [Example 95, 2-[2-(Trifluoromethyl)benzyl]-N-[5-(trifluoromethyl)pyridin-2-yl][1,3]thiazolo[5,4-d]pyrimidin-7-amine]
0.466 µM | 0.224 µM | FC(F)(F)c1ccc(Nc2ncnc3sc(Cc4ccccc4Cl)nc23)nc1 [Example 96, [2-(2-Chloro-benzyl)-thiazolo[5,4-d]pyrimidin-7-yl]-(5-trifluoromethyl-pyridin-2-yl)-amine]
1.03 µM | 0.158 µM | Cc1nc(Nc2ccc(C(F)(F)F)cn2)c2nc(Cc3c(Cl)cccc3Cl)sc2n1 [Example 97, [2-(2,6-Dichloro-benzyl)-5-methyl-thiazolo[5,4-d]ovrimidin-7-yl]-(5-trifluoromethyl-hyridin-2-yl)-amine]
